Measurements published in US11744873B2, “Compositions and methods for the treatment of metabolic and liver disorders” (Viking Therapeutics, Inc., priority 2021, dated 2023).

How the values were obtained:
[1] = system: mice fed Gubra amylin NASH (GAN) diet; assay: Biological effects in GAN diet NASH mice; format: in vivo; conditions: after two weeks, 10 mg/kg group; for Gal-3 Total: liver Galectin-3, histological quantitative assessment; for TG Total: liver triglycerides, GAN diet NASH mice; for α-SMA Total: liver α-smooth muscle actin, histological quantitative assessment
Experimental: NASH was induced in mice by feeding mice a Gubra amylin NASH (GAN) diet as described in Boland et al. World J Gastroenterol. 2019, 25(33): 4904-4920. One week prior to administration of a first dose of compounds, the mice were weighed and randomized, and their food intake was measured. Mice were randomly assigned to dosing groups, with twelve mice per group. […] Compound dose titration (nmol/kg): 0.6 (day 0), 1.2 (day 1), 2.4 (day 2), 4.8 (day 3), 4.8 (day 4), 12 (day 5), 30.0 (from day 6).
After two weeks, animals were sacrificed. Plasma enzymes (P-ALT (alanine aminotransferase) and P-AST (aspartate aminotransferase)), total plasma triglycerides, and total plasma cholesterol were measured, and terminal necropsy of each liver was carried out, determining relative liver weight as a percentage of body weight, assaying total liver biochemistry including total liver triglycerides, plasma insulin and total liver cholesterol, as well as histological evaluation of Galectin-3, and alpha-smooth muscle actin.

[2] = Pharmacokinetics studies of formulations, SC dosing; format: in vivo, cynomolgus monkeys; conditions: for half-life: cynomolgus monkey, in vivo, SC 0.2 mg/kg, mean
Experimental: (§1) Subcutaneous (SC) dosing of the compounds in a vehicle of 0.1% bovine serum albumin in phosphate buffered saline solution was performed with male cynomolgus monkeys. […] Samples were obtained at 1, 4, 8, 12, 24, 48, 72, 96, 120, 168, 192, 240 and 336 hours after the single dose was administered.
Formulation 1 included the compound in a vehicle of 0.1% bovine serum albumin in phosphate buffered saline solution.

[3] = Pharmacokinetics in monkeys, SC dosing; format: in vivo, cynomolgus monkeys; conditions: for half-life: cynomolgus monkey, in vivo, male cynomolgus monkeys, SC single dose 0.2 mg/kg, 0.1% bovine serum albumin in phosphate buffered saline, mean; for persistence in the blood stream as compared to tirzepatide: cynomolgus monkeys, SC 0.2 mg/kg
Experimental: as §1

GLP-1 receptor [4] = target: T1, GLP-1 receptor (Homo sapiens, UniProt P43220); assay: HSA modulated binding assay, GLP-1 receptor; conditions: for IC50: IC 50, GLP-1 receptor
T1 sequence (P43220 24-463): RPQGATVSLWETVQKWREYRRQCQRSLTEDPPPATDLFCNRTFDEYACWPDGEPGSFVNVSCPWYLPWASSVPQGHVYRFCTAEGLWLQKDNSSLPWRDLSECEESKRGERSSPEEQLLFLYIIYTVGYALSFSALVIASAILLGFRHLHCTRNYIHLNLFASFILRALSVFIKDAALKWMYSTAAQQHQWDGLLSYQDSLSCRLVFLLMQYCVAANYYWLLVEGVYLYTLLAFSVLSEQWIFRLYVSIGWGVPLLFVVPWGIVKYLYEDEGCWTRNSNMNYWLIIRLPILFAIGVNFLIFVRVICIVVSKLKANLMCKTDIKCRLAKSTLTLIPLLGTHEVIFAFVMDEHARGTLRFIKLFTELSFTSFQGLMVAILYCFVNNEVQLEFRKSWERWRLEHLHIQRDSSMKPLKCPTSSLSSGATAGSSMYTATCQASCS

GIP receptor [5] = target: T2, GIP receptor (Homo sapiens, UniProt P48546); assay: TagLite binding assay, GIP receptor; conditions: for % Binding avg at CMax: GIP receptor
T2 sequence (P48546 22-466): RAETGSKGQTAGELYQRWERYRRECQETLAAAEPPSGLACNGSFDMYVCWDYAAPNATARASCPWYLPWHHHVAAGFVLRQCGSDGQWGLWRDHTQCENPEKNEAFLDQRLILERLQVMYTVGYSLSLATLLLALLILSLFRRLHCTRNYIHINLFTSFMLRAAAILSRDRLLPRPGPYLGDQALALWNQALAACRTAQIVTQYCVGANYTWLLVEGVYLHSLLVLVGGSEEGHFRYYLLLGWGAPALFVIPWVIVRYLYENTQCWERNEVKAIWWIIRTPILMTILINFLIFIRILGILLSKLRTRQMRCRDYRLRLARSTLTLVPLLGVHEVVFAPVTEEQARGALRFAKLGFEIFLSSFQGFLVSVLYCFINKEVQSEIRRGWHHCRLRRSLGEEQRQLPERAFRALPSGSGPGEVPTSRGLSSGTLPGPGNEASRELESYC

GIP receptor [6] = target: T2, GIP receptor; assay: HSA modulated binding assay, GIP receptor; conditions: for % Binding avg at CMax: GIP receptor; for IC50: IC 50, GIP receptor
GLP-1 receptor [7] = target: T1, GLP-1 receptor; assay: TagLite binding assay, GLP-1 receptor; conditions: for % Binding avg at CMax: GLP-1 receptor

Molecule	Gal-3 Total [1]	TG Total [1]	α-SMA Total [1]	half-life [3]	persistence in the blood stream as compared to tirzepatide [3]	% Binding avg at CMax (GLP-1 receptor [4]; GLP-1 receptor, 0% HSA)	% Binding avg at CMax (GLP-1 receptor [4]; GLP-1 receptor, 2% HSA)	% Binding avg at CMax (GIP receptor [5])	% Binding avg at CMax (GIP receptor [6]; 0% HSA)	% Binding avg at CMax (GIP receptor [6]; 2% HSA)	% Binding avg at CMax (GLP-1 receptor [7])	other results
CC[C@H](C)[C@H](NC(=O)[C@H](CC(C)C)NC(=O)[C@H](Cc1c[nH]c2ccccc12)NC(=O)[C@H](CCC(N)=O)NC(=O)[C@@H](NC(=O)[C@H](Cc1ccccc1)NC(=O)[C@H](C)NC(=O)[C@H](CCCCNC(=O)COCCOCCNC(=O)COCCOCCNC(=O)CC[C@H](NC(=O)CCCCCCCCCCCCCCCCCCP(=O)(O)O)C(=O)O)NC(=O)[C@H](CCC(N)=O)NC(=O)[C@H](C)NC(=O)[C@@H](NC(=O)[C@H](CCCCN)NC(=O)[C@H](CC(=O)O)NC(=O)[C@H](CC(C)C)NC(=O)C(C)(C)NC(=O)[C@@H](NC(=O)[C@H](CO)NC(=O)[C@H](Cc1ccc(O)cc1)NC(=O)[C@H](CC(=O)O)NC(=O)[C@H](CO)NC(=O)[C@@H](NC(=O)[C@H](Cc1ccccc1)NC(=O)[C@@H](NC(=O)CNC(=O)[C@H](CCC(=O)O)NC(=O)C(C)(C)NC(=O)[C@@H](N)Cc1ccc(O)cc1)[C@@H](C)O)[C@@H](C)O)[C@@H](C)CC)[C@@H](C)CC)C(C)C)C(=O)N[C@@H](C)C(=O)NCC(=O)NCC(=O)N1CCC[C@H]1C(=O)N[C@@H](CO)C(=O)N[C@@H](CO)C(=O)NCC(=O)N[C@@H](C)C(=O)N1CCC[C@H]1C(=O)N1CCC[C@H]1C(=O)N1CCC[C@H]1C(=O)N[C@@H](CO)C(N)=O [Compound 4]	137 ± 15 mg	70 ± 5 mg per/ liver	102 ± 10 mg	118 h	significantly greater persistence	–	–	–	–	–	–	persistence in the blood stream as compared to tirzepatide in the identical formulation ([2]; Formulation 1 and Formulation 2): significantly greater persistence; half-life ([2]; Formulation 1 (0.1% bovine serum albumin in phosphate buffered saline)): 106 h; half-life ([2]; Formulation 2 (40% propylene glycol and 60% 10 mM pH 6 citrate buffer)): 120 h
CC[C@H](C)[C@H](NC(=O)[C@H](CC(C)C)NC(=O)[C@H](Cc1c[nH]c2ccccc12)NC(=O)[C@H](CCC(N)=O)NC(=O)[C@@H](NC(=O)[C@H](Cc1ccccc1)NC(=O)[C@H](C)NC(=O)[C@H](CCCCNC(=O)COCCOCCNC(=O)COCCOCCNC(=O)CC[C@H](NC(=O)CCCCCCCCCCCCCCCCCCC(=O)O)P(=O)(O)O)NC(=O)[C@H](CCC(N)=O)NC(=O)[C@H](C)NC(=O)[C@@H](NC(=O)[C@H](CCCCN)NC(=O)[C@H](CC(=O)O)NC(=O)[C@H](CC(C)C)NC(=O)C(C)(C)NC(=O)[C@@H](NC(=O)[C@H](CO)NC(=O)[C@H](Cc1ccc(O)cc1)NC(=O)[C@H](CC(=O)O)NC(=O)[C@H](CO)NC(=O)[C@@H](NC(=O)[C@H](Cc1ccccc1)NC(=O)[C@@H](NC(=O)CNC(=O)[C@H](CCC(=O)O)NC(=O)C(C)(C)NC(=O)[C@@H](N)Cc1ccc(O)cc1)[C@@H](C)O)[C@@H](C)O)[C@@H](C)CC)[C@@H](C)CC)C(C)C)C(=O)N[C@@H](C)C(=O)NCC(=O)NCC(=O)N1CCC[C@H]1C(=O)N[C@@H](CO)C(=O)N[C@@H](CO)C(=O)NCC(=O)N[C@@H](C)C(=O)N1CCC[C@H]1C(=O)N1CCC[C@H]1C(=O)N1CCC[C@H]1C(=O)N[C@@H](CO)C(N)=O [Compound 8]	117 ± 12 mg	75 ± 7 mg per/ liver	83 ± 8 mg	–	–	–	–	–	–	–	–	–
CC[C@H](C)[C@H](NC(=O)[C@H](CC(C)C)NC(=O)[C@H](Cc1c[nH]c2ccccc12)NC(=O)[C@H](CCC(N)=O)NC(=O)[C@@H](NC(=O)[C@H](Cc1ccccc1)NC(=O)[C@H](C)NC(=O)[C@H](CCCCNC(=O)COCCOCCNC(=O)COCCOCCNC(=O)CC[C@H](NC(=O)CCCCCCCCCCCCCCCCCCP(=O)(O)O)P(=O)(O)O)NC(=O)[C@H](CCC(N)=O)NC(=O)[C@H](C)NC(=O)[C@@H](NC(=O)[C@H](CCCCN)NC(=O)[C@H](CC(=O)O)NC(=O)[C@H](CC(C)C)NC(=O)C(C)(C)NC(=O)[C@@H](NC(=O)[C@H](CO)NC(=O)[C@H](Cc1ccc(O)cc1)NC(=O)[C@H](CC(=O)O)NC(=O)[C@H](CO)NC(=O)[C@@H](NC(=O)[C@H](Cc1ccccc1)NC(=O)[C@@H](NC(=O)CNC(=O)[C@H](CCC(=O)O)NC(=O)C(C)(C)NC(=O)[C@@H](N)Cc1ccc(O)cc1)[C@@H](C)O)[C@@H](C)O)[C@@H](C)CC)[C@@H](C)CC)C(C)C)C(=O)N[C@@H](C)C(=O)NCC(=O)NCC(=O)N1CCC[C@H]1C(=O)N[C@@H](CO)C(=O)N[C@@H](CO)C(=O)NCC(=O)N[C@@H](C)C(=O)N1CCC[C@H]1C(=O)N1CCC[C@H]1C(=O)N1CCC[C@H]1C(=O)N[C@@H](CO)C(N)=O [Compound 12]	–	–	–	104 h	significantly greater persistence	0.22%	12.04%	−1.47%	−3.33%	5.52%	0.09%	IC50 (GLP-1 receptor [4]; 0% HSA): 145 nM; IC50 (GLP-1 receptor [4]; 2% HSA): 763 nM; IC50 (GIP receptor [5]): 137 nM; IC50 (GIP receptor [6]; 0% HSA): 256 nM; IC50 (GIP receptor [6]; 2% HSA): 436 nM; IC50 (GLP-1 receptor [7]): 129 nM
tirzepatide [reference compound]	138 ± 17 mg	80 ± 11 mg per/ liver	108 ± 22 mg	–	–	−0.14%	33.01%	−1.21%	−3.05%	10.07%	0.20%	Ratio of HSA/No HSA (GLP-1 receptor [4]; GLP-1 receptor, binding with 2% HSA to binding with 0% HSA): 12.8
